# Earlier results as cited in US7262212B2, “2,3-dihydro-6-nitroimidazo[2,1-b]oxazoles” (Otsuka Pharmaceutical Co., Ltd., priority 2002, dated 2007).
# System: multi-drug-resistant Mycobacterium tuberculosis
# Conditions: multi-drug-resistant strain; cited from earlier work
compound,measurement,value
CCC1Cn2cc([N+](=O)[O-])nc2O1 (stereo not shown) [CGI-17341],bactericidal action,has a bactericidal action
